Broadly, the EC50 is the midpoint of the concentration-response curve. One may read the Ki as a dissociation constant, usually derived from enzyme kinetics or from competition with a known ligand. What is called IC50 is the concentration needed to halve the response being measured.

Experimental findings from patent publication US20050032873A1, “3-Amino chroman and 2-amino tetralin derivatives” (Wyeth, priority 2003, published 2005) are described below.

Where two headings read alike, the source gives them in different places.

For assay [1], the target named is T1, cloned human 5-HT1A receptors (Homo sapiens, UniProt P08908).
T1 construct: expressed in transfected cells
T1 sequence (P08908 1-422): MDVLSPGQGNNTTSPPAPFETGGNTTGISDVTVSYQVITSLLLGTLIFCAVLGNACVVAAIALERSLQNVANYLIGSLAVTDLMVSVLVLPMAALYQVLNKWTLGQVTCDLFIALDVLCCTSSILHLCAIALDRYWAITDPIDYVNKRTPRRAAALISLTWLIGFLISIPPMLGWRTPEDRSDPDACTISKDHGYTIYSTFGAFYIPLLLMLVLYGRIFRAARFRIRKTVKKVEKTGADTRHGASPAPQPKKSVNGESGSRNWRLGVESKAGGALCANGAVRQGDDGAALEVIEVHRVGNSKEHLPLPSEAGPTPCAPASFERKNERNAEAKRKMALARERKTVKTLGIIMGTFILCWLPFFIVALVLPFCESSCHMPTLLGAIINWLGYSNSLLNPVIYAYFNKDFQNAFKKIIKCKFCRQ
Nature of the assay: 35S-GTPγS binding assay, 5-HT1A function. The conditions noted are these: for EC50: agonist potency; for IC50: antagonist potency, reversal of 8-OH-DPAT, read-out: 5-HT1A Function GTPγS IC50. It counts as biochemical. On the technique in general: GTPγS resists hydrolysis and so accumulates on activated G proteins.

Assay [2] addresses T2, serotonin transporter (Rattus norvegicus, UniProt P31652).
T2 construct: displace ^3H-paroxetine from male rat cortical membranes; from tissue; host or cells: male rat cortical membranes
Nature of the assay: 5-HT transporter affinity: displacement of 3H-paroxetine from male rat cortical membranes. It counts as binding. The note with it: displacement of 3H-paroxetine, male rat cortical membranes. (In general: In a radioligand displacement assay an active substance lowers the binding of a labelled ligand.)

For assay [3], the target named is T3, 5-HT1A receptor (Homo sapiens, UniProt P08908).
T3 sequence (P08908 1-422): T1 sequence (P08908 1-422)
Nature of the assay: 5-HT1A receptor affinity: displacement of [3H] 8-OH-DPAT. It counts as binding. Details: expressed in transfected cells. The note with it: for inhibition at 1 µM: read-out: 5-HT1A Receptor Affinity, % @ 1 μM; for Ki: displacement of [3H] 8-OH-DPAT, CHO cells stably transfected with human 5-HT1A receptors, read-out: 5-HT1A Receptor Affinity Ki.

The mark [4] stands for this setting: maximum stimulatory effect, in brackets after EC50, read-out: 5-HT1A Function GTPγS (Emax).
Where [5] appears, read: read-out: 5-HT Transporter Affinity Ki.
Where [6] appears, read: maximum inhibitory effect, in brackets after IC50.
Where [7] appears, read: maximum inhibitory effect, in brackets after IC50, read-out: 5-HT1A Function GTPγS (Imax).
Setting [8] is: 5-HT Transporter Affinity Ki (nM).

T2 sequence (P31652 whole entry): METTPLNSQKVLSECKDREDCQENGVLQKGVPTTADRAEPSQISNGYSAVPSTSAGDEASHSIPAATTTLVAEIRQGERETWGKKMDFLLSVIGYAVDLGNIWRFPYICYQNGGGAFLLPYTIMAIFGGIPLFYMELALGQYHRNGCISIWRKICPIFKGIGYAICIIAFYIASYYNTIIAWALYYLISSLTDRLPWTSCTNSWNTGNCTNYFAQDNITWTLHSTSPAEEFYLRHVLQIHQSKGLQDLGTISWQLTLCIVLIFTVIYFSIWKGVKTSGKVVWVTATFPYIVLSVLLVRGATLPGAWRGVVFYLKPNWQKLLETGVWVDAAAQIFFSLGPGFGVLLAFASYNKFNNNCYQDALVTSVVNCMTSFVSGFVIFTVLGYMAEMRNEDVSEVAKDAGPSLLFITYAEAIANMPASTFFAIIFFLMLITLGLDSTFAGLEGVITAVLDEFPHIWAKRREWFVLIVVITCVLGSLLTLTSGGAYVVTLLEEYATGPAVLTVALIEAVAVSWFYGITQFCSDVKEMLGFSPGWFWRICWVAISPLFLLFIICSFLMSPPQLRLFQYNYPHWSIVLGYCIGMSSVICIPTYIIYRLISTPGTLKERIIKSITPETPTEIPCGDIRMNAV

For `CNC(=O)c1ccc(F)c2c1CC(NCCCCc1c[nH]c3ccc(F)cc13)CO2` (stereo not shown) [Compound 92, 8-fluoro-3-{[4-(5-fluoro-1H-indol-3-yl)butyl]amino}-N-methylchromane-5-carboxamide], the concentration giving a half-maximal response (EC50) in assay [1] came out at 1170 nM. The Emax in assay [1] (setting [4]) was 50%. Moreover, the Ki in assay [2] (setting [5]) was 7.95 nM. Further, the inhibition at 1 µM in assay [3] was 47%.

Consider `CC(CCc1c[nH]c2c(F)cc(F)cc12)N(CC1CC1)C1COc2c(F)ccc(C(N)=O)c2C1` (single isomer, unassigned) [Compound 154a, 3-{(cyclopropylmethyl)[3-(5,7-difluoro-1H-indol-3-yl)-1-methylpropyl]amino}-8-fluorochromane-5-carboxamide], for which the IC50 in assay [1] stood at 235 nM. In assay [1] (setting [6]), this compound came in with a 5-HT1A Function GTPγS (Imax) of 100%. For the same compound, the results for the inhibition constant Ki in assay [2] (setting [5]) and in assay [3] were 65 nM and 6.35 nM, respectively.

Regarding `COC(=O)c1ccc(F)c2c1C[C@@H](N(CCCCc1c[nH]c3ccc(F)cc13)C1CCC1)CO2` [Compound 58b, Methyl (3R)-3-{cyclobutyl[4-(5-fluoro-1H-indol-3-yl)butyl]amino}-8-fluorochromane-5-carboxylate], the IC50 in assay [1] turned out to be 626 nM. Moreover, the Emax in assay [1] (setting [7]) turned out to be 94%. Also, the Ki came to 29.2 nM in assay [2] (setting [5]) and 138 nM in assay [3].

Consider `O=C(NCC1CC1)c1ccc(F)c2c1CC(N(CCCc1c[nH]c3ccc(F)cc13)C1CCC1)CO2` (stereo not shown) [Compound 68, 3-{cyclobutyl[3-(5-fluoro-1H-indol-3-yl)propyl]amino}-N-(cyclopropylmethyl)-8-fluorochromane-5-carboxamide], for which, in assay [1], the 50% inhibitory concentration (IC50) was 1300 nM. In addition, in assay [1] (setting [7]), the Emax was found to be 50%. Moreover, the Ki in assay [2] (setting [5]) turned out to be 4.4 nM; in assay [3] it was 161 nM.

As to `O=C(NC1CCCC1)c1ccc(F)c2c1CC(N(CCCc1c[nH]c3ccc(F)cc13)C1CCC1)CO2` (stereo not shown) [Compound 66, 3-{cyclobutyl[3-(5-fluoro-1H-indol-3-yl)propyl]amino}-N-cyclopentyl-8-fluorochromane-5-carboxamide], the EC50 in assay [1] came to 7500 nM. In addition, the Emax in assay [1] (setting [4]) worked out at 38%. In addition, the inhibitory constant (Ki) in assay [2] (setting [5]) was 5.65 nM. For the same compound, the inhibition at 1 µM in assay [3] is 41%.

Consider `O=C(NC1CCCCC1)c1ccc(F)c2c1CC(N(CCCc1c[nH]c3ccc(F)cc13)C1CCC1)CO2` (stereo not shown) [Compound 67, 3-{cyclobutyl[3-(5-fluoro-1H-indol-3-yl)propyl]amino}-N-cyclohexyl-8-fluorochromane-5-carboxamide], for which the IC50 in assay [1] is 1970 nM. In addition, the Emax in assay [1] (setting [7]) stood at 76%. In assay [2] (setting [5]), the inhibitory constant (Ki) stood at 19.8 nM. The inhibition at 1 µM in assay [3] was 44%.

`NC(=O)c1ccc(F)c2c1OCC(NCCCc1c[nH]c3c(F)cc(F)cc13)C2` (stereo not shown) [Compound 128, 3-{[3-(5,7-difluoro-1H-indol-3-yl)propyl]amino}-5-fluorochromane-8-carboxamide] showed an EC50 in assay [1] of 608 nM. The Emax in assay [1] (setting [4]) turned out to be 59%. The inhibitory constant (Ki) in assay [2] (setting [5]) worked out at 54.5 nM. In addition, the inhibition at 1 µM in assay [3] amounted to 47%.

As for `NC(=O)c1ccc(F)c2c1CC(NCCCCc1c[nH]c3ccc(F)cc13)CO2` (stereo not shown) [Compound 79, 8-fluoro-3-{[4-(5-fluoro-1H-indol-3-yl)butyl]amino}chromane-5-carboxamide], the 50% inhibitory concentration (IC50) in assay [1] worked out at 2660 nM. In assay [1] (setting [7]), the Emax came out at 63%. Further, the inhibition constant Ki in assay [2] (setting [5]) came to 4.46 nM. The inhibition at 1 µM in assay [3] was 43%.

For the compound `NC(=O)c1ccc(F)c2c1CC(N(CCCCn1ccc3cccc(F)c31)CC1CC1)CO2` (stereo not shown) [Compound 191, 3-{(Cyclopropylmethyl)[4-(7-fluoro-1H-indol-1-yl)butyl]amino}-8-fluorochromane-5-carboxamide], in assay [1], the IC50 is 204 nM. For the same compound, the Emax in assay [1] (setting [7]) came to 74%. The figures for the Ki in assay [2] (setting [5]) and in assay [3] were 38.7 nM and 19.3 nM, respectively.

As to `CCN(CCCc1c[nH]c2ccc(F)cc12)C1COc2c(F)ccc(C(=O)NC)c2C1` (stereo not shown) [Compound 89, 3-{ethyl[3-(5-fluoro-1H-indol-3-yl)propyl]amino}-8-fluoro-N-methylchromane-5-carboxamide], in assay [1], the response was half-maximal at 110 nM (EC50). In assay [1] (setting [4]), the Emax was found to be 62%. Besides, the Ki in assay [2] (setting [5]) amounted to 1.08 nM; in assay [3], 21.2 nM.

In the case of `O=C(O)c1ccc(F)c2c1CC(N(CCCc1c[nH]c3ccc(F)cc13)C1CCC1)CO2` (stereo not shown) [Compound 56, 3-{cyclobutyl[3-(5-fluoro-1H-indol-3-yl)propyl]amino}-8-fluorochromane-5-carboxylic acid], the IC50 in assay [1] was found to be 5000 nM. Moreover, the Emax in assay [1] (setting [7]) came to 50%. In addition, the Ki in assay [2] (setting [5]) was found to be 499 nM. The inhibition at 1 µM in assay [3] was determined as 4%.

As for `CC(C)NC(=O)c1cccc2c1CC(N(CCCc1c[nH]c3c(F)cc(F)cc13)C1CCC1)CO2` (stereo not shown) [Compound 141, 3-{cyclobutyl[3-(5,7-difluoro-1H-indol-3-yl)propyl]amino}-N-isopropylchromane-5-carboxamide], the EC50 in assay [1] came to 287 nM. Further, in assay [1] (setting [4]), the Emax came to 99%. Further, the Ki amounted to 3.52 nM in assay [2] (setting [5]) and 7.69 nM in assay [3].

With `COc1cccc2c1CC(N[C@H]1CC[C@H](c3c[nH]c4ccc(F)cc43)CC1)CO2` (relative stereo) [Compound 181b, trans-N-[4-(5-fluoro-1H-indol-3-yl)cyclohexyl]-5-methoxychroman-3-amine], the IC50 in assay [1] was determined as 115 nM. Moreover, the Emax in assay [1] (setting [7]) turned out to be 44.6%. The inhibition constant (Ki) in assay [2] (setting [5]) was determined as 3.07 nM. In addition, the inhibition at 1 µM in assay [3] came out at 46%.

Take `NC(=O)c1ccc(F)c2c1C[C@@H](NCC1CCc3c([nH]c4ccc(F)cc34)C1)CO2` (single isomer, unassigned; (+)) [Compound 179a]: the half-maximal inhibitory concentration (IC50) in assay [1] stood at 9030 nM. In addition, the Emax in assay [1] (setting [7]) is 100%. Moreover, the Ki in assay [2] (setting [5]) was 33.2 nM. Further, the inhibition at 1 µM in assay [3] is 48%.

On to `CCN(CCc1c[nH]c2ccc(F)cc12)C1COc2c(F)ccc(C(=O)NC)c2C1` (stereo not shown) [Compound 85, 3-{ethyl[2-(5-fluoro-1H-indol-3-yl)ethyl]amino}-8-fluoro-N-methylchromane-5-carboxamide], for which the IC50 in assay [1] was determined as 3580 nM. For the same compound, the Emax in assay [1] (setting [7]) is 72%. In assay [2] (setting [8]), this compound gave a Ki of 35.4 nM. Besides, the inhibition at 1 µM in assay [3] was 46%.

For `CCCCNC(=O)c1ccc(F)c2c1CC(N(CCCc1c[nH]c3ccc(F)cc13)C1CCC1)CO2` (stereo not shown) [Compound 62, N-butyl-3-{cyclobutyl[3-(5-fluoro-1H-indol-3-yl)propyl]amino}-8-fluorochromane-5-carboxamide], the IC50 in assay [1] is 1900 nM. The Emax in assay [1] (setting [7]) was found to be 50%. The Ki in assay [2] (setting [5]) worked out at 4.55 nM. Moreover, in assay [3], the inhibition at 1 µM came out at 40%.

The compound `CNC(=O)c1cccc2c1CC(N(CCCc1c[nH]c3c(F)cc(F)cc13)C1CCC1)CO2` (stereo not shown) [Compound 138, 3-{cyclobutyl[3-(5,7-difluoro-1H-indol-3-yl)propyl]amino}-N-methylchromane-5-carboxamide] showed a 50% effective concentration (EC50) in assay [1] of 43 nM. Besides, the Emax in assay [1] (setting [4]) was determined as 100%. Moreover, the results for the inhibition constant (Ki) in assay [2] (setting [5]) and in assay [3] were 3.34 nM and 1.27 nM, respectively.

With `NC(=O)c1ccc(F)c2c1CC(N(CCCCn1ccc3cccc(F)c31)C1CCC1)CO2` (stereo not shown) [Compound 192, 3-{Cyclobutyl[4-(7-fluoro-1H-indol-1-yl)butyl]amino}-8-fluorochromane-5-carboxamide], in assay [1], the IC50 turned out to be 1750 nM. Further, the Emax in assay [1] (setting [7]) is 86%. The Ki in assay [2] (setting [5]) amounted to 39.3 nM; in assay [3], 39.9 nM.

With `NC(=O)c1ccc(F)c2c1CC(NCCc1c[nH]c3ccc(F)cc13)CO2` (stereo not shown) [Compound 75, 8-fluoro-3-{[2-(5-fluoro-1H-indol-3-yl)ethyl]amino}chromane-5-carboxamide], the IC50 in assay [1] is 2150 nM. The Emax in assay [1] (setting [7]) stood at 40%. In addition, the inhibition constant Ki in assay [2] (setting [5]) came out at 1030 nM. For the same compound, the inhibition at 1 µM in assay [3] worked out at 0%.

In assay [1], `COc1cccc2c1CC(N[C@H]1CC[C@H](c3c[nH]c4ccc(C#N)cc43)CC1)CO2` (relative stereo) [Compound 180b, 3-[(1,4-trans)-4-(5-Methoxy-chroman-3-ylamino)-cyclohexyl]-1H-indole-5-carbonitrile] came in with a concentration for a half-maximal effect (EC50) of 925 nM. The Emax in assay [1] (setting [4]) was determined as 50.5%. The same compound showed a Ki in assay [2] (setting [8]) of 2.46 nM. Also, the inhibition at 1 µM in assay [3] is 20%.

`COC(=O)c1ccc(F)c2c1CC(N(CCCCc1c[nH]c3ccc(F)cc13)C1CCC1)CO2` (stereo not shown) [Compound 58, Methyl 3-{cyclobutyl[4-(5-fluoro-1H-indol-3-yl)butyl]amino}-8-fluorochromane-5-carboxylate] had an EC50 in assay [1] of 8020 nM. For the same compound, the Emax in assay [1] (setting [4]) amounted to 49%. Moreover, the Ki in assay [2] (setting [5]) was determined as 35.6 nM; in assay [3] it was 202 nM.

As for `CC(CCc1c[nH]c2c(F)cc(F)cc12)N(CC1CC1)C1COc2c(F)ccc(C(N)=O)c2C1` (single isomer, unassigned) [Compound 154d, 3-{(cyclopropylmethyl)[3-(5,7-difluoro-1H-indol-3-yl)-1-methylpropyl]amino}-8-fluorochromane-5-carboxamide], the concentration for half-maximal inhibition (IC50) in assay [1] was determined as 7070 nM. Moreover, in assay [1] (setting [6]), the 5-HT1A Function GTPγS (Imax) was 71%. Also, the inhibitory constant (Ki) in assay [2] (setting [5]) turned out to be 4.81 nM. Besides, in assay [3], the inhibition at 1 µM stood at 2%.
